Source: patent US7989629B2, “3-(4-{ [4-(4-{ [3-(3, 3-dimethyl-1-piperidinyl) propyl] oxy} phenyl)-1-piperidinyl] carbonyl}-1-naphthalenyl) propanoic or propenoic acid as H1 and H3 receptor antagonists for the treatment of inflammatory and/or allergic disorders” (Glaxo Group Limited, priority 2005, dated 2011)

Columns and labels:
histamine H3 receptor = histamine H3 receptor (Homo sapiens, UniProt Q9Y5N1); assay: Histamine H3 functional antagonist assay (GTPγS); type: biochemical; settings: functional antagonism, histamine at EC80; read-out: average pKi (pKb) at H3 (converted)
From the text: 2. H3 Receptor Cell Line Generation, Membrane Preparation and Functional GTPγS Assay Protocols
Generation of Histamine H3 Cell Line
The histamine H3 cDNA is isolated from its holding vector, pcDNA3.1 TOPO (InVitrogen), by restriction digestion of plasmid DNA with the enzymes BamH1 and Not-1 and ligated into the inducible expression vector pGene (InVitrogen) digested with the same enzymes. The GeneSwitch™ system (a system wherein transgene expression is switched off in the absence of an inducer and switched on in the presence of an inducer) is performed as described in U.S. Pat. Nos. 5,364,791; 5,874,534; and 5,935,934. […]
10-14 days post selection, 10 nM Mifepristone (InVitrogen) is added to the culture medium to induce the expression of the receptor. […] Receptor bound antibody is detected by incubation of the cells for 60 min on ice with a goat anti rabbit antibody, conjugated with Alexa 488 fluorescence marker (Molecular Probes). Following two further washes with Sorting Medium, cells are filtered through a 50 μm Filcon™ (BD Biosciences) and are then analysed on a FACS Vantage SE Flow Cytometer fitted with an Automatic Cell Deposition Unit, Control cells are non-induced cells treated in a similar manner. […]

human H1 receptor [1] = biological target: T1, human H1 receptor (Homo sapiens, UniProt P35367); assay: Histamine H1 functional antagonist assay (FLIPR): determination of functional pKi values; type: cell-based; settings: functional antagonism, CHO cells, histamine at EC80; read-out: average pKi (pKb) at H1 (converted)
From the text: H1 Receptor Cell Line Generation and FLIPR Assay Protocol
1. Generation of Histamine H1 Cell Line
(§1) The human H1 receptor may be cloned using known procedures described in the literature [Biochem. Biophys. Res. Commun., 201(2):894 (1994)]. Chinese hamster ovary (CHO) cells stably expressing the human H1 receptor may be generated according to known procedures described in the literature [Br. J. Pharmacol., 117(6):1071 (1996)].
Histamine H1 Functional Antagonist Assay: Determination of Functional pKi Values […]
10 μl of test compound, diluted to the required concentration in Tyrodes buffer+probenecid (or 10 μl Tyrodes buffer+probenecid as a control) is added to each well and the plate incubated for 30 min at 37° C., 5% CO2. The plates are then placed into a FLIPR™ (Molecular Devices, UK) to monitor cell fluorescence (λex=488 nm, λEM=540 nm) in the manner described in Sullivan et al., (In: Lambert D G (ed.), Calcium Signaling Protocols, New Jersey: Humana Press, 1999, 125-136) before and after the addition of 10 μl histamine at a concentration that results in the final assay concentration of histamine being EC80.
Functional antagonism is indicated by a suppression of histamine induced increase in fluorescence, as measured by the FLIPR™ system (Molecular Devices). By means of concentration effect curves, functional affinities are determined using standard pharmacological mathematical analysis.

human H1 receptor [2] = biological target: T1, human H1 receptor; assay: Histamine H1 functional antagonist assay (FLIPR): determination of antagonist pA2; type: cell-based
Method: as §1
Histamine H1 Functional Antagonist Assay: Determination of Antagonist pA2
The histamine H1 receptor expressing CHO cells is seeded into non-coated black-walled clear bottom 96-well tissue culture plates as described above. […]
The plates are then placed into a FLIPR™ (Molecular Devices, UK) to monitor cell fluorescence (λex=488 nm, λEM=540 nm) in the manner described in Sullivan et al., (In: Lambert D G (ed.), Calcium Signaling Protocols, New Jersey: Humana Press, 1999, 125-136) before and after the addition of 50 μl histamine over a concentration range of 1 mM-0.1 nM. […] The antagonist pA2 is calculated using the following standard equation: pA2=log(DR−1)−log [B] where DR=dose ratio, defined as EC50antagonist-treated/EC50control and [B]=concentration of antagonist.

histamine-induced wheals = assay: In vivo anti-inflammatory wheal and flare model; set-up: species or system guinea pig
Method: In Vivo Anti-Inflammatory Wheal and Flare Model
Male Dunkin-Hartley guinea pigs 500 g-1 kg are dosed with test compound or vehicle using a 1 ml syringe into the oral cavity (0.5 ml/kg p.o.), or via a marginal ear vein (0.33 ml/kg i.v.). Compounds are formulated in 5% DMSO/45% PEG200/50% water.
Either 2 hr after oral or 15 min after intravenous compound administration, guinea pigs are anaesthetised with isoflurane (5%, […] O2), and receive Evans blue solution (2% in saline), 0.33 ml/kg i.v. via a marginal ear vein.
Immediately after Evans blue administration, and whilst still under isoflurane, animals are placed in a prone position, and an area of the back shaved. […]
Following histamine challenge, the animals are allowed to recover from anaesthesia and, 30 minutes later are euthanased with an i.p. overdose of pentobarbitone. The dorsal skin is carefully removed and wheal areas (stained blue) measured from the inner skin surface by taking two perpendicular diameters using engineer's calipers, and calculating the average radius. This value is used to calculate the area of each wheal, and the mean value of all histamine-induced wheals is subsequently calculated for each animal. […]
Dose-response curves are constructed for each test compound and ID50 values may be determined for each route of administration (oral and intravenous).

Dog pharmacokinetics = type: in vivo; settings: combined data for Example 1 and 3; for half-life / bioavailability: male, Beagle, whole blood; for bioavailability: po, 2 mg/kg
Method: Compounds are dosed to male Beagle dogs by single intravenous or oral administration at a nominal dose level of 1 mg/kg and 2 mg/kg respectively. The study is carried out according to a crossover design such that the same dog is used for both dosing events and the dosing events occurred 1 week apart. Compounds are formulated in 5% DMSO/45% Peg200/50% water. An intravenous profile is obtained by taking serial blood samples at 0.083, 0.25, 0.5, 0.75, 1, 2, 4, 6 and 12 hr post dose (for some studies 24 hour samples may be taken). An oral profile is obtained by taking serial blood samples at 0.25, 0.5, 0.75, 1, 2, 4, 6, 12 and 24 hr post dose. Blood samples are taken directly into heparinised tubes. Blood samples are prepared by protein precipitation and subjected to quantitative analysis by LC-MS/MS using compound-specific mass transitions. Drug concentration-time profiles are generated and non-compartmental PK analysis used to generate estimates of half-life, clearance, volume of distribution and oral bioavailability.

Rat pharmacokinetics = type: in vivo
Method: Compounds are dosed to male CD Sprague Dawley rats by single intravenous or oral administration at a nominal dose level of 1 mg/kg and 3 mg/kg respectively. Compounds are formulated in 5% DMSO/45% PEG200/50% water. An intravenous profile is obtained by taking serial or terminal blood samples at 0.083, 0.25, 0.5, 1, 2, 4, and 7 hours post dose (for some studies 12 and 24 hour samples may be taken). An oral profile is obtained by taking serial or terminal blood samples at 0.25, 0.5, 1, 2, 4, 7 and 12 hours post dose (for some studies 24 and 30 hour samples may be taken). Blood samples are taken directly into heparinised tubes. Blood samples are prepared by protein precipitation and subjected to quantitative analysis by LC-MS/MS using compound-specific mass transitions. Drug concentration-time profiles are generated and non-compartmental PK analysis used to generate estimates of half-life, clearance, volume of distribution and oral bioavailability.

T1 sequence (P35367 whole entry): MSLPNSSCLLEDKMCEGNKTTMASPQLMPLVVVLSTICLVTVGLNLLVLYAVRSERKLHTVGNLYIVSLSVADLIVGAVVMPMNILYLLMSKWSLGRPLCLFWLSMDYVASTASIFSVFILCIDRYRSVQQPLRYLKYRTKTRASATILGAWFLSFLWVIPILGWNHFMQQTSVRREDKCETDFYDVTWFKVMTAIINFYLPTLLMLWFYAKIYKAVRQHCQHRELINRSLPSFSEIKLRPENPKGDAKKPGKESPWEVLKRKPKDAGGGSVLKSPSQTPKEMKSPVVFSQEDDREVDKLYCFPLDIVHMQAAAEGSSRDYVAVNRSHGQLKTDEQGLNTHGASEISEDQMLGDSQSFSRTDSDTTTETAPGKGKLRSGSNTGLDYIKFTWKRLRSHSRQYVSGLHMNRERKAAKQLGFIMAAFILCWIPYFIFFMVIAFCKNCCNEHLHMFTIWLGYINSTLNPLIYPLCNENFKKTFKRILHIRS
Sequence of histamine H3 receptor (Q9Y5N1 whole entry, species assumed): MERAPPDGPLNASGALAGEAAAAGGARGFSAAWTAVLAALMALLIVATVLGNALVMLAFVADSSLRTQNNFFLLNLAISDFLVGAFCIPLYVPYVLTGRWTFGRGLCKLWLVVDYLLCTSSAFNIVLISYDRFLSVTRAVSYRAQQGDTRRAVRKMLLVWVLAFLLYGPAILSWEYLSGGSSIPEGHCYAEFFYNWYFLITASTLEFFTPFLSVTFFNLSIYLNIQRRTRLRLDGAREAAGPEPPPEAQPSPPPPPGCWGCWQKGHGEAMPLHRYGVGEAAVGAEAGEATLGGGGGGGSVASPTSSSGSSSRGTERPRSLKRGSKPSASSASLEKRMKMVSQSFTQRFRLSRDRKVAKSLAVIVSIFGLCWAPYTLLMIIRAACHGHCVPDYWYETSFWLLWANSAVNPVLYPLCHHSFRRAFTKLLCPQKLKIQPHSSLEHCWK

Compound	Ki (histamine H3 receptor) [nM]	Ki (human H1 receptor [1]) [nM]	Kb (human H1 receptor [2]) [nM]	ID50 in the wheal and flare model (histamine-induced wheals; i.v.)	ID50 in the wheal and flare model (histamine-induced wheals; oral)	plasma clearance (Dog pharmacokinetics)	half-life (Dog pharmacokinetics) [h]	bioavailability (Dog pharmacokinetics) [%]	plasma clearance (Rat pharmacokinetics)	half-life (Rat pharmacokinetics; male, CD Sprague Dawley, whole blood, 1 mg/kg, IV route) [h]	bioavailability (Rat pharmacokinetics; male, CD Sprague Dawley, whole blood, po, 3 mg/kg) [%]
CC1(C)CCCN(CCCOc2ccc(C3CCN(C(=O)c4ccc(CCC(=O)O)c5ccccc45)CC3)cc2)C1.Cl [Example 3, 3-(4-{[4-(4-{[3-(3,3-dimethyl-1-piperidinyl)propyl]oxy}phenyl)-1-piperidinyl]carbonyl}-1-naphthalenyl)propanoic acid, hydrochloride salt]	~50.1	~12.6	~7.94	about 0.6 mg/Kg	about 2.8 mg/Kg	low	~3	~60			
CC1(C)CCCN(CCCOc2ccc(C3CCN(C(=O)c4ccc(CCC(=O)O)c5ccccc45)CC3)cc2)C1 [Example 1, 3-(4-{[4-(4-{[3-(3,3-dimethyl-1-piperidinyl)propyl]oxy}phenyl)-1-piperidinyl]carbonyl}-1-naphthalenyl)propanoic acid, formic acid (1:1)]	~39.8	~15.8				low	~3	~60	low	4 to 5	~59
